The record followed here is patent US20250032568A1, “TRADITIONAL CHINESE MEDICINE COMPOSITION AND TRADITIONAL CHINESE MEDICINE DECOCTION FOR TREATING GASTROESOPHAGEAL REFLUX DISEASE (GERD), AND PREPARATION METHOD AND USE THEREOF” (AFFILIATED HOSPITAL OF JIANGXI UNIVERSITY OF TRADITIONAL …, priority 2023, published 2025).

Assay type in all cases: in vivo, human
Experiment [1] deals with gastroesophageal reflux disease (GERD). Kind of experiment: Reflux Disease Questionnaire (RDQ) score in GERD patients. Particulars: 40 per group, mean ± S. How it is done: (§1) In this example, 80 patients who were diagnosed with GERD in the inpatient and outpatient departments of the Gastroenterology Department of the Affiliated Hospital of Jiangxi University of Traditional Chinese Medicine from 2022.6.1 to 2023.2-28 and met this standard were collected, with a total effective rate of 87.5%.
(§2) Treatment group: 100 mL Bid of the traditional Chinese medicine decoction prepared in Example 1
(§3) Control group: 20 mg Bid of an esomeprazole magnesium soluble capsule
1) Reflux Disease Questionnaire (RDQ)
RDQ is currently the most recognized and widely used diagnostic scale for GERD in the world.
The maximum score for frequency and symptom severity is 40 points, and the GERD is diagnosed when the RDQ score is >12 points.
RDQ scoring criteria: a. Scoring based on the frequency of symptom onset: based on the weekly frequency of four symptoms: heartburn, regurgitation, non-cardiac chest pain, and acid reflux, “never”, “1 week <1 d”, “1 d per 1 week”, “2-3 d per 1 week”, “4-5 d per 1 week”, and “almost every day” were scored as 0, 1, 2, 3, 4, and 5 points, respectively, with a maximum of 20 points. b. […]

Experiment [2] shares this test system. Put plainly: Clinical efficacy (total effective rate) in GERD patients. Particulars: 40 per group; for Efficacy (total effective rate): (Recovery+Significant effect+Effective)/total number of cases. The protocol:
as §1, §2, §3

Experiment [3] shares this test system. Put plainly: TCM symptom scoring in GERD patients. Particulars: 40 per group, mean ± S. How it is done: as §1, §2, §3
3) TCM symptom scoring: referring to the “Guiding Principles for Clinical Research of New Traditional Chinese Medicines” for scoring. The scoring criteria are as follows: primary symptoms including acid reflux, heartburn, belching and reflux; the secondary symptoms including retrosternal burning pain, throat discomfort, bitter mouth, nausea. There are 4 levels according to none, mild, moderate, and severe. The primary symptoms are recorded as 0, 2, 4 and 6 points, respectively, while the secondary symptoms are recorded as 0, 1, 2 and 3 points, respectively.

[4] abbreviates: decoction 100 mL Bid or esomeprazole capsule 20 mg Bid, after the test.

Turning to `COc1ccc2[n-]c([S+]([O-])Cc3ncc(C)c(OC)c3C)nc2c1.COc1ccc2[n-]c([S+]([O-])Cc3ncc(C)c(OC)c3C)nc2c1.[Mg+2]` (stereo not drawn) [esomeprazole magnesium soluble capsule, esomeprazole magnesium], the “RDQ score after treatment” value in experiment [1] was 13.73 ± 4.59^[4]. The “Efficacy (total effective rate)” value in experiment [2] (listed as Control) is reported as 82.50%. For the same molecule, the “Efficacy (total effective rate)” value in experiment [2] (listed as control group) is reported as 82.5%. In experiment [2] (setting [4]), the “Effective (number of patients)” value worked out at 23, the “Invalid (number of patients)” value is given as 7, the “Recovery (number of patients)” value is 4 and the “Significant effect (number of patients)” value was 6. For the same molecule, the “TCM symptom score after treatment” value in experiment [3] (after treatment) is 8.43 ± 4.29^[4]. Moreover, the “TCM symptom score before treatment” value in experiment [3] (baseline) is 17.85 ± 4.07^[2].
